The assay deals with L1210. As to the kind of experiment: Optimal dose (ED 95) in L1210 leukemia bearing mice. In kind it is in vivo. The following applies: L1210 bearing mice DBA2. An excerpt:
The antineoplastic activity of the compounds of the invention has been investigated testing the compounds of the chemical group "in vivo" against experimental rodent tumors such as the solid form of Ehrlich tumour (STE, originally mammary adenocarcinoma), tumor HK (also transplantable originally mammary adenocarcinoma), Krebs' ascites tumour (Kr2), S37 ascites sarcoma, Nemeth-Keller lymphoma (NK), all maintained in mice H, Gardner lymphosarcoma (LsG, maintained in mice C3H), P388 and/or L1210 leukemia (maintained in DBA2 mice), B16 metastasizing melanocarcinoma (maintained in C57B1/6 mice) and Yoshida ascites reticulosarcoma (Y, maintained in Wistar rats) in experiments according to Jelinek, V. [Neoplasma 12, 469 (1965); ibid 7, 146 (1960)] and in "in vitro" experiments using radioactive precursors of nucleic acids and proteins according to Miko, M. et al. [Cancer Res 39, 4242 (1979); Neoplasma 26, 449 (1979); ibid 16, 161 (1969)] with minor modifications [Mattern, J.: Studies on the Drug Sensitivity of Short Term Cultured Tumour Cell Suspensions. In "Human Tumours in Short Term Culture" (Dendy, P.P. ed.), p.301, Academic Press 1976]. The Cox's proportional-hazards model was used for survival evaluation and optimal dose calculation according to Carter, V.H. et al. [cf Cancer Res. 42, 2963 (1982)]. […]

Like-named read-outs stand apart in the source and are kept apart here.

With `O=C1c2ccccc2-c2c1c1ccccc1c(=O)n2CCNCCO` [I (X=2), 6-[2-(2-hydroxyethyl)aminoethyl]-5,11-dioxo-5,6-dihydro-11H-indeno[1,2-c]isoquinoline], the ED95 worked out at 225 mg/kg (Mus musculus, po, read-out: ED 95) and 675 mg/m^2 (p.o., dose per body surface).
